From BigSolDB 2.1

Cc1cccc(C(=O)O)c1[N+](=O)[O-]
Conditions | solubility (mole fraction)
in isobutanol, 297.15 K | 0.0102
in isobutanol, 300.65 K | 0.0119
in isobutanol, 303.45 K | 0.0138
in isobutanol, 306.55 K | 0.0161
in isobutanol, 311.15 K | 0.0193
in isobutanol, 315.05 K | 0.0227
in isobutanol, 317.85 K | 0.0268
in isobutanol, 322.15 K | 0.0314
in isobutanol, 326.25 K | 0.0367
in isobutanol, 330.35 K | 0.0425
in isobutanol, 333.45 K | 0.0486
in isobutanol, 337.15 K | 0.0558
in n-butanol, 300.75 K | 0.0177
in n-butanol, 304.15 K | 0.0199
in n-butanol, 307.55 K | 0.0228
in n-butanol, 312.55 K | 0.0264
in n-butanol, 316.15 K | 0.0304
in n-butanol, 319.85 K | 0.0351
in n-butanol, 324.15 K | 0.0406
in n-butanol, 328.25 K | 0.0466
in n-butanol, 332.25 K | 0.0529
in n-butanol, 335.95 K | 0.0597
in n-butanol, 339.95 K | 0.0676
in n-butanol, 343.45 K | 0.0742
in sec-butanol, 305.05 K | 0.024
in sec-butanol, 307.65 K | 0.0272
in sec-butanol, 311.15 K | 0.0314
in sec-butanol, 315.25 K | 0.0373
in sec-butanol, 319.85 K | 0.0447
in sec-butanol, 323.95 K | 0.053
in sec-butanol, 328.85 K | 0.0622
in sec-butanol, 333.35 K | 0.0718
in sec-butanol, 337.65 K | 0.0817
in sec-butanol, 342.25 K | 0.0921
in sec-butanol, 346.25 K | 0.102
in tert-butanol, 301.35 K | 0.0307
in tert-butanol, 304.05 K | 0.0328
in tert-butanol, 306.25 K | 0.0366
in tert-butanol, 310.05 K | 0.0442
in tert-butanol, 314.75 K | 0.0531
in tert-butanol, 318.95 K | 0.0619
in tert-butanol, 323.05 K | 0.0711
in tert-butanol, 327.35 K | 0.0802
in tert-butanol, 331.45 K | 0.0898
in tert-butanol, 335.95 K | 0.0999
in tert-butanol, 340.65 K | 0.111

Cc1cc(C(=O)O)ccc1[N+](=O)[O-]
Conditions | solubility (mole fraction)
in isobutanol, 306.95 K | 0.009
in isobutanol, 309.55 K | 0.0105
in isobutanol, 315.75 K | 0.0132
in isobutanol, 319.55 K | 0.0158
in isobutanol, 323.85 K | 0.0192
in isobutanol, 328.95 K | 0.0235
in isobutanol, 333.95 K | 0.0283
in isobutanol, 337.95 K | 0.0332
in isobutanol, 342.15 K | 0.0391
in isobutanol, 346.65 K | 0.0457
in n-butanol, 305.15 K | 0.013
in n-butanol, 309.55 K | 0.0153
in n-butanol, 314.95 K | 0.0177
in n-butanol, 318.35 K | 0.0201
in n-butanol, 321.35 K | 0.0228
in n-butanol, 324.35 K | 0.026
in n-butanol, 327.95 K | 0.03
in n-butanol, 332.05 K | 0.0349
in n-butanol, 336.75 K | 0.0405
in n-butanol, 341.25 K | 0.047
in n-butanol, 345.35 K | 0.0546
in sec-butanol, 304.55 K | 0.0142
in sec-butanol, 307.65 K | 0.0166
in sec-butanol, 311.55 K | 0.0199
in sec-butanol, 316.25 K | 0.0243
in sec-butanol, 321.35 K | 0.0297
in sec-butanol, 326.15 K | 0.0359
in sec-butanol, 331.15 K | 0.0428
in sec-butanol, 335.25 K | 0.05
in sec-butanol, 339.25 K | 0.0578
in sec-butanol, 343.55 K | 0.0667
in tert-butanol, 304.35 K | 0.0193
in tert-butanol, 306.95 K | 0.0229
in tert-butanol, 310.15 K | 0.0271
in tert-butanol, 314.95 K | 0.0321
in tert-butanol, 317.95 K | 0.0372
in tert-butanol, 321.65 K | 0.043
in tert-butanol, 325.85 K | 0.0493
in tert-butanol, 329.45 K | 0.0556
in tert-butanol, 333.05 K | 0.0627
in tert-butanol, 336.35 K | 0.0703
in tert-butanol, 339.65 K | 0.0791
in tert-butanol, 343.65 K | 0.0878
in tert-butanol, 345.25 K | 0.0915

Cc1ccc([N+](=O)[O-])c(C(=O)O)c1
Conditions | solubility (mole fraction)
in isobutanol, 293.75 K | 0.113
in isobutanol, 299.15 K | 0.133
in isobutanol, 305.75 K | 0.153
in isobutanol, 311.15 K | 0.173
in isobutanol, 317.55 K | 0.193
in isobutanol, 322.95 K | 0.209
in isobutanol, 328.15 K | 0.227
in isobutanol, 333.65 K | 0.243
in n-butanol, 290.65 K | 0.167
in n-butanol, 292.15 K | 0.172
in n-butanol, 294.15 K | 0.183
in n-butanol, 297.75 K | 0.199
in n-butanol, 302.85 K | 0.218
in n-butanol, 307.15 K | 0.237
in n-butanol, 311.65 K | 0.256
in n-butanol, 315.15 K | 0.275
in n-butanol, 319.75 K | 0.295
in n-butanol, 323.85 K | 0.316
in n-butanol, 328.15 K | 0.338
in sec-butanol, 290.15 K | 0.185
in sec-butanol, 292.45 K | 0.199
in sec-butanol, 297.65 K | 0.225
in sec-butanol, 303.15 K | 0.253
in sec-butanol, 309.95 K | 0.28
in sec-butanol, 315.35 K | 0.305
in sec-butanol, 321.15 K | 0.329
in sec-butanol, 326.15 K | 0.352
in sec-butanol, 330.55 K | 0.372
in tert-butanol, 301.55 K | 0.255
in tert-butanol, 305.15 K | 0.274
in tert-butanol, 309.85 K | 0.295
in tert-butanol, 314.45 K | 0.318
in tert-butanol, 318.15 K | 0.341
in tert-butanol, 322.75 K | 0.366
in tert-butanol, 327.35 K | 0.392
in tert-butanol, 332.05 K | 0.418
in tert-butanol, 336.55 K | 0.445
in tert-butanol, 339.55 K | 0.473
